One block for each compound: values may come before it.
Key:
[1] = tested on: RINm5F cells; assay: Neutral red cytotoxicity assay in RINm5F cells; assay type: cell-based, rat; settings: FeNTA concentrations used, 3 days after iron stimulation
Description: (A): Hepcidin expression in RINm5F cells after iron (FeNTA) stimulation using quantitative RT-PCR (n=5) (1 μM FeNTA: P<0.01; 3 μM: P<0.001; 10 μM: P<0.002; 65 μM: P<0.05). (B): Cytotoxicity of FeNTA in RINm5F cells measured by neutral red assay 3 days after iron stimulation. […] (C): Immunoblot analysis of iron stimulated RINm5F cells showing hepcidin immunoreactivity at the range of 10 kDa. […] The second immunoreactive band at 20 kDa may reflect a dimeric type of hepcidin.
(§1) In these experiments, protein extracts were incubated for 7 min at 94° C. in sample buffer with 4% (wt/vol) SDS (Merck, Darmstadt, Germany), 50 mM TRIS-HCl (PH 8.45), 1 mM EDTA, 3.24 mM dithiothreitol (ROTH, Karlsruhe, Germany), 12.5% (wt/vol) glycerol (Merck, Darmstadt, Germany), and 0.002% Bromophenol blue (Merck, Darmstadt, Germany). To detect hepcidin, a 16.5% Tricine-SDS-polyacrylamide gel was used.

[2] = tested on: hepcidin protein in RINm5F cells; assay: Immunoblot analysis of hepcidin in stimulated RINm5F cells; assay type: cell-based, rat
Description: (§2) RINM5F cells were grown in RPMI1640 media (PAA, Austria) containing L-glutamine, supplemented with 10% (vol/vol) heat inactivated fetal calf serum, penicillin (100 units/ml) and streptomycin (100 μg/mL). Cells were cultivated at 37° C. in 5% CO2. Cells were incubated with increasing concentrations of FENTA from 1 μM up to 65 μM for 72 hours and with 100 mM glucose (Merck, Darstadt, Germany) for up to 8 hours. After stimulation experiments, total rna or proteins were extracted from RINM5F cells and analyzed by quantitative PCR and immunoblot assays.
as §1

[3] = tested on: hepcidin expression in RINm5F cells; assay: Hepcidin expression in RINm5F cells by quantitative RT-PCR after stimulation; assay type: cell-based, rat
Description: as §2
The regulation of hepcidin expression in RINm5F cells was analyzed upon exposure to iron, since iron regulates hepcidin expression in the liver. The regulatory effect of iron on hepcidin gene expression was measured in these cells under various FENTA concentrations using quantitative RT-PCR as described, for example, in Gehrke et al., Blood 102: 371-376 (2003). A 2-step reverse transcriptase-polymerase chain reaction (RT-PCR) was performed using the Lightcycler system and relative quantification software version 1.0 (ROCHE Molecular Biochemicals; Mannheim, Germany). […] In a second step, transcripts of hepcidin were amplified in duplicates with specific sense and antisense primers. all transcripts were detected using SYBR GREEN I according to manufacturer's instructions and were normalized to β-actin as internal control.

[4] = target: T1, Ferroportin-GFP (Fpn-GFP) (Mus musculus, UniProt Q9JHI9); assay: Fpn-GFP internalization in HEK293-Fpn cells, epi-fluorescence microscopy; assay type: cell-based
T1 construct: expressed in transfected cells; host or cells: EcR293 cells (resulting HEK293-Fpn cells), induced with ponasterone for 24 h
T1 sequence (Q9JHI9 1-570): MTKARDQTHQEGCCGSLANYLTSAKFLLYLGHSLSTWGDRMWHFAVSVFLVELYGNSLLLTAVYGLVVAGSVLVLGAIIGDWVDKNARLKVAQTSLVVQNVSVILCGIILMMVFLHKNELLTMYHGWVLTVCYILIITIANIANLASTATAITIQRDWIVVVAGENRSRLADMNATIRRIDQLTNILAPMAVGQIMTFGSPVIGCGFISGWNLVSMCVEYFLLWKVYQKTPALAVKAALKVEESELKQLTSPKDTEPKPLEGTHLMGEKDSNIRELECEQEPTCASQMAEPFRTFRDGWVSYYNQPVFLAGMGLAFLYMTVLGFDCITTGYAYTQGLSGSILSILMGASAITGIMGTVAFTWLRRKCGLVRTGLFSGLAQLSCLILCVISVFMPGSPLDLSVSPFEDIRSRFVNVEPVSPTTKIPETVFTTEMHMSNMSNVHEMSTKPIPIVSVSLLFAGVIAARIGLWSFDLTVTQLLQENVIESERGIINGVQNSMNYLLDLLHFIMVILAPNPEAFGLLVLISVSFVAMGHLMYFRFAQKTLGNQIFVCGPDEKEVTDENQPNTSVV
From the text: In one embodiment, the antibodies of the instant invention (e.g., the antibodies capable of binding SEQ ID NO:2, SEQ ID NO:3, SEQ ID NO:4, SEQ ID NO:5) may be used to inactivate hepcidin. In one embodiment, EcR293 cells were stably transfected with a plasmid containing an ecdysone-regulated Ferroportin-GFP (Fpn-GFP) construct (Nemeth et al. Science 306:2090-2093, (2004)). In resulting HEK293-Fpn cells bioactive hepcidin binds to ferroportin and specifically induces the internalization of Fpn-GFP. Briefly, Fpn-GFP was induced by ponasterone treatment for 24 h. Cells were then incubated with 0.1 to 0.5 μM purified human hepcidin (from urine) for 6 h and imaged by epi-fluorescence microscopy. […] When hepcidin was absent from the medium, there was no internalization of Fpn-GFP.
cR293 cells were stably transfected with a plasmid containing an ecdysone-regulated Ferroportin-GFP (Fpn-GFP) construct. In resulting HEK293-Fpn cells bioactive hepcidin binds to ferroportin and specifically induces the internalization of Fpn-GFP. Briefly, Fpn-GFP was induced by ponasterone treatment for 24 h. Cells were then incubated with 0.1 to 0.5 μM purified human hepcidin (from urine) for 6 h and imaged by epi-fluorescence microscopy.

Compound: O=C([O-])CN(CC(=O)[O-])CC(=O)[O-].[Fe+3] [FeNTA, Iron Nitrilotriacetate]
cytotoxicity in neutral red assay [1]: no cytotoxicity exists under the iron concentrations used
cytotoxicity in neutral red assay ([1]; listed as FENTA): not cytotoxic
hepcidin immunoreactivity at 10 kDa compared to control ([2]; 3 μM FeNTA): up-regulation of hepcidin
hepcidin immunoreactivity at 10 kDa compared to control ([2]; 65 μM FeNTA): down-regulation
hepcidin-mRNA regulation ([3]; FeNTA 1 μM up to 10 μM, 72 hours): significant up-regulation of hepcidin-mRNA up to three-fold
hepcidin expression ([3]; FeNTA 65 μM or higher): down-regulated

Compound: Chemically synthesized hepcidin: hepcidin synthesized chemically
efficiency in inducing Fpn-GFP internalization compared with hepcidin purified from urine ([4]; same experiments as with urine hepcidin): as efficient in inducing Fpn-GFP internalization as hepcidin purified from urine

time to Fpn internalization ([4]; 0.1 μM hepcidin): ≤ 1 h
concentration of hepcidin that induced Fpn internalization ([4]; HEK293-Fpn cells, within 1 h): ≤ 0.1 µM
Compound: hepcidin: purified human hepcidin (from urine), bioactive peptide hormone binding ferroportin
distribution of Fpn-GFP after addition of hepcidin ([4]; 0.1 to 0.5 μM purified human hepcidin (from urine), 6 h): changed the distribution of Fpn-GFP from the cell surface to punctuate intracellular vesicles

— patent publication US8304258B2, “Methods of producing monoclonal antibodies specific for human hepcidin” (DRG International, Inc., priority 2002, dated 2012)
